This passage reports viscosity results from the NIST ThermoML archive (doi:10.1016/j.fluid.2017.10.003).

In general, viscosity refers to the internal friction of a fluid under shear.

For this series the following is noted: 101.33 kPa, Liquid.

Numbers after ± are expanded uncertainties.

For the compound `CC(=O)[O-].[NH3+]CCO` [2-hydroxyethylammonium acetate], the viscosity is given as 3073 mPa·s (293.15 K); 1974 mPa·s (298.15 K); 1306 mPa·s (303.15 K); 896.3 mPa·s (308.15 K); 624.5 mPa·s (313.15 K); 363.72 ± 150 mPa·s (318.15 K). Besides, the viscosity runs as follows: (323.15 K) 271.13 ± 93 mPa·s; (328.15 K) 203.65 ± 58 mPa·s; (333.15 K) 159.15 ± 37 mPa·s; (338.15 K) 123.69 ± 23 mPa·s; (343.15 K) 98.5 ± 14 mPa·s; (348.15 K) 79.76 ± 8.3 mPa·s. For the same compound, the viscosity is, setting by setting: (353.15 K) 65.27 ± 5.6 mPa·s; (358.15 K) 52.72 ± 4.6 mPa·s; (363.15 K) 43.69 ± 5 mPa·s.

In the case of `NCCO.O=CO` [2-hydroxyethylammonium formate], the viscosity was determined as 129 ± 50 mPa·s (293.15 K); 98.49 ± 27 mPa·s (298.15 K); 71.9 ± 11 mPa·s (303.15 K); 56.34 ± 2.8 mPa·s (308.15 K); 44.88 ± 4.3 mPa·s (313.15 K); 36.53 ± 3.5 mPa·s (318.15 K). The viscosity by setting is: (323.15 K) 30.1 ± 2.9 mPa·s; (328.15 K) 24.92 ± 2.4 mPa·s; (333.15 K) 21 ± 2.1 mPa·s; (338.15 K) 18.98 ± 1.9 mPa·s; (343.15 K) 16.3 ± 1.6 mPa·s; (348.15 K) 13.96 ± 1.4 mPa·s. Besides, the viscosity (353.15 K) was found to be 12.1 ± 1.3 mPa·s, the viscosity (358.15 K) came to 10.57 ± 1.2 mPa·s and the viscosity (363.15 K) is on record as 9.3 ± 1.1 mPa·s.

As for `CCCC(=O)[O-].[NH3+]CCO` [2-hydroxy ethylammonium butanoate], the viscosity came to 2619 mPa·s (293.15 K); 1796 mPa·s (298.15 K); 1260 mPa·s (303.15 K); 904.36 mPa·s (308.15 K); 596.88 mPa·s (313.15 K); 445.06 ± 200 mPa·s (318.15 K). In addition, the viscosity is, setting by setting: (323.15 K) 335.81 ± 130 mPa·s; (328.15 K) 256.28 ± 85 mPa·s; (333.15 K) 199.67 ± 56 mPa·s; (338.15 K) 153.8 ± 35 mPa·s; (343.15 K) 122.53 ± 22 mPa·s; (348.15 K) 98.65 ± 15 mPa·s. In addition, the viscosity (353.15 K) came out at 80.46 ± 11 mPa·s, the viscosity (358.15 K) is recorded as 66.2 ± 8.7 mPa·s and the viscosity (363.15 K) is listed as 53.33 ± 8 mPa·s.
